Measured values from patent publication US10370391B2, “Hydrogen peroxide-activable, anti-oxidant compounds and methods using same” (Beth Israel Deaconess Medical Center, Inc., priority 2014, dated 2019).

Legend:
[1] = system: mouse macrophage (RAW264.7) cells; experiment: MTT cytotoxicity assay, RAW264.7; type: cell-based; settings: concentrations as high as 5 mM, 24 hours of incubation
Method: FIG. 3, comprising FIGS. 3A-3B, is a set of bar graphs illustrating biocompatibility profiles of BRAP assessed by MTT assay in mouse macrophage (RAW264.7) cells (FIG. 3A) and ARVC (FIG. 3B). FIG. 19 is a bar graph showing the results of assessing cytotoxicity of BRAP-encapsulated PLGA microparticles against RAW264.7 cells in vitro. Cell viability was determined by the 3-(4,5-dimethylthiazil-2yl)-2,5-diphenyltetrazolium bromide (MTT) assay 24 hours after addition of BRAP-encapsulated PLGA microparticles to cells. “PB” represents BRAP-encapsulated PLGA microparticles. The percentages indicate the weight content of BRAP in the particles. Values shown represent mean±s.d. (n=4). […] 3-(4,5-Dimethylthiazil-2yl)-2,5-diphenyltetrazolium bromide (MTT) assay was performed to evaluate the cytotoxicity of BRAP. NIH 3T3 cells were cultured at a density of 1×10^5 cells/well in a 24 well plate, and RAW 264.7 cells and HEK cells were also cultured at a density of 2×10^5 cells/well in a 24 well plate. Cells were incubated for 24 hours to reach ˜80% confluency. Cells were treated with various amount of BRAP and incubated for 24 hours. […] After 10 min incubation, the absorbance at 570 nm was measured using a microplate reader (Biotek Instruments, Winooski, Vt.). The cell viability was determined by comparing the absorbance of BRAP treated cells that of control cells.

[2] = system: H2O2-stimulated adult rat cardiomyocytes; experiment: Protection from H2O2-induced cell death in ARVC; type: cell-based; settings: H2O2 0.25 mM; concentration dependent; vs vehicle
Method: (§1) FIG. 4, comprising FIGS. 4A-4F, is a set of graphs, bar graphs and images illustrating anti-oxidant and anti-inflammatory effects of BRAP in vitro. […] The generation of ROS was monitored by flow cytometry as an indicator of DCF fluorescence. Fluorescence was analyzed in 10,000 cells with excitation at 480 nm and emission at 530 nm. FIG. 4C: Protective effect of BRAP on H2O2— stimulated adult rat cardiomyocytes. V=vehicle, *<0.05 vs. V+H2O2 (n=4). […] (n=4/group).
Since cardiovascular disease is one of the most common and clinically relevant problems associated with oxidative stress injury, the effect of BRAP on cellular protection from the H2O2-induced cell death was further examined using ARVC in vitro.

TNF-α = TNF-α level in LPS-stimulated macrophage cells; type: cell-based, mouse
Method: as §1
The anti-inflammatory effects of BRAP on LPS-stimulated cells were investigated by measuring the level of inflammatory cytokines such as TNF-α (tumor necrosis factor-alpha) and iNOS (inducible nitric oxide synthases) (FIGS. 4E-4F). […] These observations indicate that BRAP, as well as BRAP-encapsulated PLGA microparticles, is able to scavenge overproduced H2O2 and serve as a H2O2-activable anti-oxidant. Further, the enhanced anti-oxidant activity of BRAP is derived from the combined effects of H2O2-scavenging boronic esters and HBA generation after H2O2-mediated boronate oxidation.

CC1(CO)COB(c2ccc(CO)cc2)OC1 [BRAP, (4-(5-(hydroxymethyl)-5-methyl-1,3,2-dioxaborinan-2-yl)phenyl)methanol]
cytotoxicity (MTT) [1]: no significant cytotoxicity | protection from H2O2-induced cell death [2]: significant protection | TNF-α level (TNF-α): significantly suppressing
